Laboratory results as given in patent US11999716B2, “WDR5 inhibitors and modulators” (priority 2018, dated 2024).

system: MV4:11 human cancer cell lines; assay: Cellular viability / anti-proliferative activity, CellTiter-Glo, 5 day protocol; assay type: cell-based; conditions: Homo sapiens, MV4-11, 120 h, MV4:11 cells; 5 day incubation; CellTiter-Glo; mean of minimum two replicates; read-out: GI50 on cellular proliferation of MV4:11 human cancer cell lines
Summary of the method: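 Compounds were tested over 22 two-fold dilutions starting at 30 μM in 0.3% DMSO, with 200 cells per well (7200 cells/mL). Viability was measured by CellTiter-Glo luminescence at day 5.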

Compound	GI50
COc1ccnc(CN2CCc3c(cc(CNC(=N)C(F)(F)F)cc3-c3cn(C)nc3C(F)(F)F)C2=O)c1 [Example 120, 2,2,2-Trifluoro-N-((2-((4-methoxypyridin-2-yl)methyl)-5-(1-methyl-3-(trifluoromethyl)-1H-pyrazol-4-yl)-1-oxo-1,2,3,4-tetrahydroisoquinolin-7-yl)methyl)acetimidamide]	> 938 nM
CCn1cc(-c2cc(Cn3ccnc3C)cc3c2CCN(Cc2cn(C)nc2C)C3=O)c(C(F)(F)F)n1 [Example 20, 2-((1,3-Dimethyl-1H-pyrazol-4-yl)methyl)-5-(1-ethyl-3-(trifluoromethyl)-1H-pyrazol-4-yl)-7-((2-methyl-1H-imidazol-1-yl)methyl)-3,4-dihydroisoquinolin-1(2H)-one]	508 nM
CCc1ccnc([C@H](C)N2CCc3c(cc(Cn4ccnc4)cc3-c3cn(C)nc3C(F)(F)F)C2=O)c1 [Example 191, (S)-7-((1H-Imidazol-1-yl)methyl)-2-(1-(4-ethylpyridin-2-yl)ethyl)-5-(1-methyl-3-(trifluoromethyl)-1H-pyrazol-4-yl)-3,4-dihydroisoquinolin-1(2H)-one]	< 50 nM
Cc1cc([C@H](C)N2CCc3c(cc(Cn4ccn(C)c4=N)cc3-c3cn(C)nc3C)C2=O)ccc1F [Example 143, (S)-5-(1,3-Dimethyl-1H-pyrazol-4-yl)-2-(1-(4-fluoro-3-methylphenyl)ethyl)-7-((2-imino-3-methyl-2,3-dihydro-1H-imidazol-1-yl)methyl)-3,4-dihydroisoquinolin-1(2H)-one]	< 50 nM
CCn1cc(CN2CCc3c(cc(CN4CCOC4=N)cc3-c3cn(CC)nc3C(F)(F)F)C2=O)nn1 [Example 99, 2-((1-Ethyl-1H-1,2,3-triazol-4-yl)methyl)-5-(1-ethyl-3-(trifluoromethyl)-1H-pyrazol-4-yl)-7-((2-iminooxazolidin-3-yl)methyl)-3,4-dihydroisoquinolin-1(2H)-one]	77 nM
CCn1cc(-c2cc(Cn3ccoc3=N)cc3c2CCN([C@@H](C)c2cc(OC)ccn2)C3=O)c(C(F)(F)F)n1 [Example 91, (S)-5-(1-Ethyl-3-(trifluoromethyl)-1H-pyrazol-4-yl)-7-((2-iminooxazol-3(2H)-yl)methyl)-2-(1-(4-methoxypyridin-2-yl)ethyl)-3,4-dihydroisoquinolin-1(2H)-one]	< 50 nM

Now from value to compound:

GI50	Compound
274 nM	CCn1cc(-c2cc(Cn3ccn(C)c3=N)cc3c2CCN(Cc2cc(OC)ccn2)C3=O)c(C)n1 [Example 63, 5-(1-Ethyl-3-methyl-1H-pyrazol-4-yl)-7-((2-imino-3-methyl-2,3-dihydro-1H-imidazol-1-yl)methyl)-2-((4-methoxypyridin-2-yl)methyl)-3,4-dihydroisoquinolin-1(2H)-one]
< 50 nM	COc1cncc(CN2CCc3c(cc(Cn4ccnc4C)cc3-c3cn(C)nc3C(F)(F)F)C2=O)c1 [Example 228, 2-((5-Methoxypyridin-3-yl)methyl)-7-((2-methyl-1H-imidazol-1-yl)methyl)-5-(1-methyl-3-(trifluoromethyl)-1H-pyrazol-4-yl)-3,4-dihydroisoquinolin-1(2H)-one]
64 nM	Cc1cc([C@H](C2CC2)N2CCc3c(cc(Cn4ccn(C)c4=N)cc3-c3ccc(F)cc3C)C2=O)ccc1F [Example 32, (S)-2-(Cyclopropyl(4-fluoro-3-methylphenyl)methyl)-5-(4-fluoro-2-methylphenyl)-7-((2-imino-3-methyl-2,3-dihydro-1H-imidazol-1-yl)methyl)-3,4-dihydroisoquinolin-1(2H)-one]
301 nM	COc1cc(CN2CCc3c(cc(Cn4ccnc4C)cc3-c3ccc(F)cc3C)C2=O)cc(OC)c1 [Example 6, 2-(3,5-Dimethoxybenzyl)-5-(4-fluoro-2-methylphenyl)-7-((2-methyl-1H-imidazol-1-yl)methyl)-3,4-dihydroisoquinolin-1(2H)-one]
